# Data as given in publication PMC4957648 (Journal of medicinal chemistry, 2016).
# Experiments:
# thyroid hormone receptor = assay: Thyroid hormone activity assay, agonist mode; format: cell-based; conditions: for EC50: read-out: TR agonist EC50, GH3.TRE-Luc cells
# Cif [1] = target: T1, Cif (Pseudomonas aeruginosa, UniProt A0A0H2ZD27); assay: Fluorescent-based Cif inhibitory assay; format: biochemical
# [2] = Solubility under Cif assay conditions; format: physicochemical
# [3] = Human liver microsomal stability; format: in vitro ADME; conditions: liver microsomes
# [4] = system: polarized monolayers of airway epithelial cells; assay: Cytotoxicity in polarized airway epithelial monolayers; format: cell-based; conditions: concentrations up to 10 μM
# GH3.TRE-Luc cells = assay: Cytotoxicity in GH3.TRE-Luc cells; format: cell-based; conditions: concentrations up to 10 μM
# Cif [5] = target: T1, Cif; assay: Surface plasmon resonance binding to immobilized Cif
# Human sEH = target: T2, Human sEH (Homo sapiens, UniProt P34913); assay: biochemical
# T2 sequence (P34913 1-555): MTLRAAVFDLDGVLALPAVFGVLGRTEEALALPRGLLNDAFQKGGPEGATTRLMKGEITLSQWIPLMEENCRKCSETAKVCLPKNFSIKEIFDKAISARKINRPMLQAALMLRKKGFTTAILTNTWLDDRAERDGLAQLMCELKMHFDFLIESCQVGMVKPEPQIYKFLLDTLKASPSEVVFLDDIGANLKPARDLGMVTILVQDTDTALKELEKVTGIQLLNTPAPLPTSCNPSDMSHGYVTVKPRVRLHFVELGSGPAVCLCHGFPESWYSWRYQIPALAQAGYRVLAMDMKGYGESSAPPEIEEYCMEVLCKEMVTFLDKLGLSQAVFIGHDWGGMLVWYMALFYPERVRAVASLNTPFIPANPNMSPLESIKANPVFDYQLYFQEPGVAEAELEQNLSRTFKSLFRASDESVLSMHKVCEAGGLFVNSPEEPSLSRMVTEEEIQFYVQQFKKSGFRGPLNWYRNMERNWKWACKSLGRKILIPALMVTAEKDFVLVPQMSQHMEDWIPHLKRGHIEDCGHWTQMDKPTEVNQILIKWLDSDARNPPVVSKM
# CFTR = conditions: from purified Cif protein and P. aeruginosa PA14; ref 5b; cited from earlier work
# T1 sequence (A0A0H2ZD27 25-319 limits assumed): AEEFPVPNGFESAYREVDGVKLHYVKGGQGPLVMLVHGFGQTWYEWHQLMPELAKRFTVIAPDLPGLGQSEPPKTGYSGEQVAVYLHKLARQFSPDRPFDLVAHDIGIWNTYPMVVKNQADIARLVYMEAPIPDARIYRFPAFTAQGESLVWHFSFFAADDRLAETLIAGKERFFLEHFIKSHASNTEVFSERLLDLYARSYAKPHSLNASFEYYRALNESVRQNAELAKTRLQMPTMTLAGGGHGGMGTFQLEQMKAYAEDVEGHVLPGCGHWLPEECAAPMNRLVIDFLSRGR
SMILES,solubility [2] [µM],increase in Cif inhibitory potency over lead compound (Cif [1]) [fold],EC50 (thyroid hormone receptor) [µM],residence time (Cif [5]) [min],further results
CCC(=O)Nc1cc(Br)c(Oc2ccc(O)c(C(C)C)c2)c(Br)c1 [Compound 1c],,,,,thyroid hormone activity (compounds with different R1) (thyroid hormone receptor): lowest thyroid hormone activity
CCOC(=O)CC(=O)Nc1cc(Br)c(Oc2cccc(C(C)C)c2)c(Br)c1 [Compound 1g],50 to 100,,,,Cif inhibitory activity (Cif [1]; at 50 μM or 25 μM): failed to show inhibitory activity
CCOC(=O)CC(=O)Nc1cc(Br)c(Oc2ccc(OC)c(C(C)C)c2)c(Br)c1 [Compound 1h],25 to 50,,,,Cif inhibitory activity (Cif [1]; at 50 μM or 25 μM): failed to show inhibitory activity
CCOC(=O)CC(=O)Nc1cc(Cl)c(Oc2ccc(O)cc2)c(Cl)c1 [Compound 1k],50 to 100,,,,Cif inhibitory activity (Cif [1]; at 50 μM): no inhibition
CCC(=O)Nc1cc(Cl)c(Oc2ccc(O)c(-c3ccccc3)c2)c(Cl)c1 [Compound 8a],,,,,half-life [3]: > 1 h
"CCC(=O)Nc1cc(Cl)c(Oc2ccc(O)c(-c3ccc(C(N)=O)cc3)c2)c(Cl)c1 [Compound 8c, 5′-(2,6-Dichloro-4-propionamidophenoxy)-2′-hydroxy-[1,1′-biphenyl]-4-carboxamide]",,~10,> 10,0.0333 to 0.0667,cytotoxicity [4]: neither 8c nor 8h showed cytotoxicity; cytotoxicity (GH3.TRE-Luc cells): neither 8c nor 8h showed cytotoxicity; IC50 (Human sEH): ~8 µM
CCC(=O)Nc1cc(Cl)c(Oc2ccc(O)c(-c3ccc(NC(N)=O)cc3)c2)c(Cl)c1 [Compound 8h],,~10,> 10,0.0333 to 0.0667,cytotoxicity [4]: neither 8c nor 8h showed cytotoxicity; cytotoxicity (GH3.TRE-Luc cells): neither 8c nor 8h showed cytotoxicity; IC50 (Human sEH): ~8 µM
CCC(=O)Nc1cc(Cl)c(Oc2ccc(O)c(-c3ccc(C(C)=O)cc3)c2)c(Cl)c1 [Compound 8j],,~10,> 10,0.0333 to 0.0667,
O=C(O)Cc1cc(I)c(Oc2ccc(O)c(I)c2)c(I)c1 [tiratricol],,,,,protection of CFTR (CFTR): protects CFTR
